Where a SMILES comes first, the peptide text is derived from it. The star is where a group is joined. CH2Cl = ClC*
How the values were obtained:
EMT6 cells = test: cell death of EMT6 cells in vitro; type: cell-based, mouse; conditions: for cell death at concentration used for vaccination: 60 μM; for LDH release: WT EMT6 cells; for potency at killing WT EMT6 cells: cell-titer Glo assay, in vitro
EMT6 tumor challenge = test: vaccination with drug-treated EMT6 cells and EMT6 challenge; type: in vivo, mouse; conditions: for mice remaining tumor-free after challenge: immunization with drug-treated EMT6 cells, challenge 8 days later
Human GSDMD [1] = target: T1, Human GSDMD (Homo sapiens, UniProt P57764); test: time-resolved fluorogenic; type: biochemical; conditions: read-out: EC50 of liposome leakage; human GSDMD 0.3 μM, Tb3+/DPA fluorescence
T1 sequence (P57764 whole entry): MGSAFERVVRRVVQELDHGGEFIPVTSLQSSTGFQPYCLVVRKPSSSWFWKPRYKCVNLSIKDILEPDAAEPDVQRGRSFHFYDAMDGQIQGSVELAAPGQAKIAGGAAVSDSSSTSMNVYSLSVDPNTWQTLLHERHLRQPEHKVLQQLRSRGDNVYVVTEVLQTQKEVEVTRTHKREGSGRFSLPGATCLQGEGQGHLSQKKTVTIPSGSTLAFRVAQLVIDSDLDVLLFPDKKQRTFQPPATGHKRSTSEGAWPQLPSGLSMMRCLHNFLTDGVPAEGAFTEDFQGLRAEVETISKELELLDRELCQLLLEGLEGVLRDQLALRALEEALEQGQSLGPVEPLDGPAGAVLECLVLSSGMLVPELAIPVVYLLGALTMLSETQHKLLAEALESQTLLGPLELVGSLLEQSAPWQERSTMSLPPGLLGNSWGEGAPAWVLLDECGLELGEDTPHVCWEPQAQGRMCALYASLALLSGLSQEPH

WT EMT6 tumors = test: orthotopic WT EMT6 tumors in BALB/c mice; type: in vivo, mouse
[2] = toxicity readouts in treated tumor-bearing mice; type: in vivo, mouse
[3] = target: GSDMD (YFP at N terminus, RLuc at C terminus) (Homo sapiens, UniProt P57764); test: BRET assay of GSDMD NT-CT distance; type: cell-based
Sequence of GSDMD (YFP at N terminus, RLuc at C terminus) (P57764 whole entry): as above

Human GSDMD [4] = target: T1, Human GSDMD; test: microscale thermophoresis; type: binding; conditions: read-out: dissociation constant (KD) by MST; Alexa 647-labeled GSDMD
[5] = system: immortalized mouse BMDMs (iBMDMs); test: cell death of immortalized mouse BMDMs; type: cell-based; conditions: WT iBMDMs, 5 and 20 μM; not affected by caspase-1/11 ablation
[6] = target: mCherry-tagged full-length GSDMD (Homo sapiens, UniProt P57764); test: membrane localization of mCherry-tagged full-length GSDMD in HEK293T cells; type: cell-based; conditions: increasing concentrations of DMB
Sequence of mCherry-tagged full-length GSDMD (P57764 whole entry): as above

[7] = system: human GSDMA, GSDMB, GSDMC, GSDME; test: liposome leakage assay with other human gasdermins; type: biochemical; conditions: gasdermins 0.3 μM
C38A GSDMD = C38A GSDMD (Homo sapiens, UniProt P57764, C38A); test: liposome leakage assay with C38A GSDMD; type: biochemical; conditions: read-out: EC50 for activating GSDMD pore formation
Sequence of C38A GSDMD (P57764 whole entry C38A): as the sequence (P57764 whole entry) above, with C38A counted along it

4T1E tumors = test: orthotopic 4T1E tumors in BALB/c mice, DMB and anti-PD-1; type: in vivo, mouse; conditions: DMB 1 mg/kg weekly; anti-PD-1 every 2 days
mouse GSDMD = test: liposome leakage assay with mouse GSDMD; type: biochemical
C191A GSDMD = C191A GSDMD (Homo sapiens, UniProt P57764, C191A); test: liposome leakage assay with C191A GSDMD; type: biochemical
Sequence of C191A GSDMD (P57764 whole entry C191A): as the sequence (P57764 whole entry) above, with C191A counted along it

CT26 colorectal cancer = test: subcutaneous CT26 tumors in syngeneic mice; type: in vivo, mouse; conditions: 10 mg/kg
[8] = system: GSDMD KO THP-1 cells reconstituted with WT or D275A GSDMD; test: PI uptake in GSDMD KO THP-1 cells reconstituted with WT or D275A GSDMD; type: cell-based, human; conditions: 5 or 20 μM, 1, 2 and 4 h
NLRP3 = NLRP3 activation in LPS-primed THP-1 cells; type: cell-based, human; conditions: treatment after LPS priming
[9] = system: B16 cells that expressed GFP; test: subcutaneous B16-GFP tumors in syngeneic mice; type: in vivo, mouse; conditions: 10 mg/kg every 3 days x6
[10] = system: GSDMD knockout (KO) THP-1 cells; test: cell death of GSDMD KO THP-1 cells by PI uptake; type: cell-based, human; conditions: 5 or 20 μM
THP-1 cells = test: cell death of WT THP-1 cells by PI uptake; type: cell-based, human
[11] = system: primary mouse bone-marrow-derived macrophages (BMDMs); test: cell death of primary mouse BMDMs; type: cell-based; conditions: WT and GSDMD KO primary BMDMs
[12] = system: full-length GSDMD in HEK293T cells; test: activation of full-length GSDMD in transfected HEK293T cells; type: cell-based, human
recombinant caspase-1 = recombinant caspase-1 (Homo sapiens, UniProt P29466); test: Caspase-1 activity assay; type: biochemical; conditions: in vitro, DMB 10 μM, Z-YVAD-AFC substrate
Sequence of recombinant caspase-1 (P29466 120-297 limits assumed, species assumed): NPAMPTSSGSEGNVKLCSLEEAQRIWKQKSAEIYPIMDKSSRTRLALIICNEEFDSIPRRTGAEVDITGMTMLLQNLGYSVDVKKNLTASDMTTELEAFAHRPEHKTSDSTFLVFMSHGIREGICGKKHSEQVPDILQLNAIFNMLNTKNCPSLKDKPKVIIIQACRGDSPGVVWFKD
Sequence of recombinant caspase-1 (P29466 317-404 limits assumed, species assumed): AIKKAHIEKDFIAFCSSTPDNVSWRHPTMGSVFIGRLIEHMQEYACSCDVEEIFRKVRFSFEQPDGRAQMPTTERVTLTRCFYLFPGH

[13] = system: human peripheral blood mononuclear cells (PBMCs); test: cell death of human PBMCs; type: cell-based
EMT6 tumors in NSG mice = test: EMT6 tumors in NSG mice; type: in vivo, mouse; conditions: NSG mice lacking functional lymphocytes
[14] = system: B16 cells expressing human GSDMD-GFP
[15] = system: Human GSDMD-GFP-expressing B16 cells; test: pyroptosis of B16-GSDMD-GFP cells in vitro by PI uptake; type: cell-based, mouse; conditions: 10 μM DMB
[16] = system: KP lung adenocarcinoma tumors; test: subcutaneous KP tumors in WT and Gsdmd−/− C57BL/6 mice; type: in vivo, mouse
[17] = system: Gsdmd−/− and Gsdmd−/−Gsdme−/− EMT6 tumors; test: orthotopic gasdermin-KO EMT6 tumors in BALB/c mice; type: in vivo, mouse; conditions: 10 mg/kg weekly
[18] = 10 mg/kg i.p. every 3 days x6 from day 5

Structure (SMILES): CO[C@@]12[C@H](COC(N)=O)C3=C(C(=O)C(C)=C(N)C3=O)N1C[C@@H]1N[C@@H]12 [MMC, mitomycin C]
- ATP release into supernatants (EMT6 cells; EMT6 cells): did not trigger ATP release
- cell death at concentration used for vaccination (EMT6 cells; EMT6 cells, 20 h): 60–70%
- LDH release (EMT6 cells): much less and delayed LDH release
- potency at killing WT EMT6 cells (EMT6 cells): similarly potent
- mice remaining tumor-free after challenge (EMT6 tumor challenge): tumors grew in all the mice

Structure (SMILES): CC(C)(C)Nc1nc2cc(Cl)c(Cl)cc2nc1S(C)(=O)=O [DMB, 6,7-dichloro-2-methylsulfonyl-3-N-tert-butylaminoquinoxaline]
- EC50 (Human GSDMD [1]): 700 nM
- tumor growth (WT EMT6 tumors; 10 mg/kg weekly for 2 weeks, WT EMT6): significantly suppressed
- GzmB/PFN expression and stimulated IFN-γ/TNF-α production of CD8+ and NK TILs (WT EMT6 tumors; 10 mg/kg weekly, WT EMT6 tumors): significantly increased
- ATP release into supernatants (EMT6 cells; EMT6 cells): peaked 2 and 3 h
- cell death at concentration used for vaccination (EMT6 cells; EMT6 cells, 5 h): 60–70%
- LDH release (EMT6 cells): beginning within an hour of treatment
- potency at killing WT EMT6 cells (EMT6 cells): similarly potent
- mouse body weight ([2]; B16 tumor-bearing mice, 10 mg/kg every 3 days x6): no effect
- blood counts ([2]; EMT6-bearing mice, 10 mg/kg): normal blood counts
- BRET signal compared with DMSO control [3]: decreased the BRET signal
- Kd (Human GSDMD [4]): 1100 ± 400 nM
- cell death [5]: triggered cell death
- membrane localization of mCherry-tagged full-length GSDMD [6]: up to 88%
- activation of other human gasdermins [7]: activated human GSDMD but not other human gasdermins
- EC50 (C38A GSDMD): ~900 nM
- tumor growth / tumor volume vs vehicle (4T1E tumors): does not inhibit tumor growth on its own
- fold reduced efficacy on mouse GSDMD vs human GSDMD (mouse GSDMD): ~ 5 fold
- tumor size, times smaller than in mice immunized with MMC-treated cells (EMT6 tumor challenge; immunization with DMB-treated EMT6 cells): 6 times
- mice remaining tumor-free after challenge (EMT6 tumor challenge): Three of 12
- activation of GSDMD pore formation (C191A GSDMD): not activated
- tumor growth (CT26 colorectal cancer): A similar reduction in tumor growth
- cell death by PI uptake, WT vs D275A GSDMD rescue [8]: comparable cell death
- NLRP3 activation (ASC speck formation, IL-1β release) (NLRP3): did not significantly activate NLRP3
- tumor growth [9]: no significant effect
- cell death by PI uptake [10]: minimally
- cell death by PI uptake (THP-1 cells; WT THP-1 cells, 5 or 20 μM): induced significant cell death within 2 h
- EC50 (THP-1 cells; read-out: EC50 of DMB-mediated cell death, WT THP-1, PI positivity at 4 h): 4800 ± 400 nM
- GSDMD dependence of cell death induction [11]: depended on GSDMD
- activation of C191R and C191F full-length GSDMD mutants [12]: could not be activated
- effect on recombinant caspase-1 activity (recombinant caspase-1): neither inhibited nor activated
- induction of PI positivity, LDH release, ATP release [13]: robustly induced
- tumor growth (EMT6 tumors in NSG mice): did not suppress the growth
- surviving mice cured with no palpable tumor [14, 18]: 3
- tumor growth [14, 18]: strongly inhibited tumor growth
- mice surviving to the end of the experiment ([14]; 10 mg/kg i.p. every 3 days x6 from day 5, clones 9 and 10): 5 of 16
- T cells per tumor area, DMB vs. vehicle ([14]; CD3+ CD8+ immunofluorescence): 8.3 fold
- DCs per tumor area, DMB vs. vehicle ([14]; MHCII+ CD11c+ immunofluorescence): 25.2 fold
- survival of mice bearing smaller tumors, delayed treatment ([14]; treatment from day 10, every 3 days x6): two of the four
- sensitivity to DMB-induced pyroptosis by PI uptake [15]: became sensitive to DMB-induced pyroptosis
- tumor growth [16]: similarly inhibited
- tumor growth ([17]; Gsdmd−/− EMT6): not significantly reduced
- tumor growth ([17]; Gsdmd−/−Gsdme−/− EMT6): not significantly reduced

Structure (SMILES): CCN(CC)C(=S)SSC(=S)N(CC)CC [disulfiram, reference compound]
- effect of pretreatment on DMB-induced cell death ([13]; pretreatment before DMB): strongly suppressed cell death

Structure (SMILES): CC(=O)N[C@@H](Cc1ccccc1)C(=O)N[C@@H](CC(C)C)C(=O)N[C@H](C(=O)N[C@@H](CC(=O)O)C(=O)CCl)[C@@H](C)O [AC-FLTD-CMK] (Ac-FLTD-CH2Cl)
- effect of caspase inhibition on DMB-induced SYTOX Green uptake (EMT6 cells; EMT6 cells): did not affect DMB-induced pyroptosis

— publication PMC11648675 (Cell, 2024)
